Results reported in patent publication US8404239B2, “Anti-Notch2 NRR antibodies” (Genentech, Inc., priority 2008, dated 2013).

Legend:
Notch2 signaling = assay: Co-culture Notch reporter assay, Notch2 signaling (U87MG cells + Jag1 cells); assay type: cell-based; conditions: Jag1-induced; DAPT 5 μM
Method: (§1) NIH-3T3 cells stably transfected with Jag1 were used to induce Notch signaling in NIH-3T3 cells stably transfected with Notch1 (except for “−Jag1”, which used untransfected NIH-3T3 cells in place of the Jag1-expressing cells). […] NIH-3T3 cells stably transfected with Jag1 were used to induce Notch signaling in U87MG cells, which express high levels of Notch2. The assay was performed as described in (A). […] The assay was performed as in (A) except that the receptor-expressing cells were generated by transient transfection of plasmids expressing the indicated Notch1 receptors.
Co-culture assay in U87MG cells, as described in FIG. 10B.
(§2) NIH-3T3 cells either stably transfected with Notch 1 or transiently transfected with plasmids containing other Notch receptors were co-transfected with a Notch-responsive TP-1 (12× CSL) Firefly luciferase reporter and a constitutively active Renilla Luciferase reporter (pRL-CMV, Promega) to control for transfection efficiency. Cells are allowed to recover from the transfection from 6 hours to overnight. Treatments of antibodies and NIH-3T3 cells stably transfected with ligand are used to stimulate the receptor cells. After 20 hours, firefly and Renilla luciferase are measured with Dual Glo Luciferase Assay system (Promega). Eight replicates were analyzed for each condition by dividing the Firefly signal by the Renilla signal to control for transfection efficiency. The mean and standard deviation were calculated and values were normalized to calculated values for co-culture stimulated with NIH-3T3 cells without ligand transfected.

Notch1 signaling = assay: Co-culture Notch reporter assay, Notch1 signaling (NIH-3T3 Notch1 cells + ligand cells); assay type: cell-based; conditions: Jag1-induced; α-gD 2000 ng/ml; DAPT 5 μM
Method: as §1
as §2, with “Cells are allowed to recover from the transfection from 6 hours to overnight. Treatments of antibodies and NIH-3T3 cells stably transfected with ligand are used to stimulate the receptor cells.” left out

SK23 melanoma cells = assay: Cell Titer Glo viability of melanoma cell line SK23; assay type: cell-based, human; conditions: six days, antibodies 20 mg/ml, DAPT 5 μM, ± Jagged-1
Method: (§3) Human melanoma cell lines SK23 and LOX-IMVI were plated in medium containing 2% FBS at low density (4000 cells/well for SK23, 2500 cells/well for LOX-IMVI) in 96 well plates that were coated without (−jag-1) or with Jagged-1 ligand (+jag-1) (R&D Systems, Minneapolis, Minn.). […] An equal volume of DMSO served as the vehicle control, whereas an equal concentration of anti-gD HuB6 phage antibody served as the isotype control antibody. Cell Titer Glo assays (Promega, Madison, Wis.) were performed six days after plating. […] In FIGS. 25A and 25B, cell viability (y-axis) is expressed relative to the values from the DMSO vehicle, −jag-1 control wells.

LOX-IMVI melanoma cells = assay: Cell Titer Glo viability of melanoma cell line LOX-IMVI; assay type: cell-based, human; conditions: six days, antibodies 20 mg/ml, DAPT 5 μM, ± Jagged-1
Method: as §3

[1] = tested on: intestinal cell differentiation; assay: Histology and immunohistochemistry of mouse intestine tissue; assay type: in vivo
From the text: (A) Total body weight change (mean+/−standard deviation) vs. time. […] Arrows mark the days of dosing. (B) Immunohistochemical analyses of small intestines. […] In each row as indicated, staining is shown for haemotoxylin and eosin (H & E), Alcian Blue for mucin and to mark secretory goblet cells, lysozyme to mark Paneth cells, Ki-67 for proliferation and Hes1 as a Notch downstream target. See FIGS. 19 and 20 for analyses of the large intestine at day 7 and of the small intestine at day 2, respectively. Bar=40 μm. (C) Comparison of Notch1- versus Notch2-specific inhibition on small intestinal cell differentiation. Small intestines from the study described in (A) were prepared for Alcian Blue and Ki-67 one day after the final dosing with α-gD, α-NRR1 or α-NRR2, as indicated. Bar=50 μm.
Formalin-fixed and paraffin-embedded mouse small intestine tissues were sectioned at 3 micron thickness. Histochemical identification of intestinal cell types was performed with Alcian blue as recommended by the manufacturer (PolyScientific). For anti-Ki67 staining, sections were pretreated with Target Retrieval Solution (S1700, DAKO), and incubated with rabbit anti-Ki67 (1:200, clone SP6, Neomarkers). Secondary goat anti-rabbit at 7.5 μg/ml (Vector labs) was detected with the Vectastain ABC Elite Kit (Vector labs). Ki67 stained sections were counterstained with Mayer's haemotoxylin. For anti-lysozyme staining, sections were processed on the Discovery XT platform (Ventana Medical Systems, Inc.) using CC1m epitope recovery conditions, OmniMap-rabbit detection and Ventana haemotoxylin II/with bluing counterstain. For HES-1 staining, anti-rat HES-1 (clone NM1, MBL, International) was followed by TSA-HRP.
The effect of inhibiting both Notch1 and Notch2 on intestinal cell fate determination was also investigated. […] The intestines were harvested and stained with H&E to reveal the crypt morphology. […] Further experimentation confirmed this observation.

HUVECs = assay: HUVEC fibrin gel bead endothelial cell sprouting assay; assay type: cell-based, human; conditions: HUVEC co-cultured with skin fibroblasts; 1 μM DBZ, 5 μg/ml antibodies
Method: (A) In vitro endothelial cell sprouting assay. HUVECs were coated on Cytodex beads and co-cultured with skin fibroblasts. Cultures were either mock treated (control) or treated with 1 μM of DBZ, 5 μg/ml of α-NRR1 or 5 μg/ml of α-D114. Bar=100 μm. (B) Sprout length measurements from the cultures in (A). (C) Mouse neonate retinal assay for endothelial cell sprouting and angiogenesis. Mouse neonates were injected at P1 and P3 with the indicated antibodies, and retinas were prepared at P5 to visualize perfusion of isolectin or the Ki67 marker for proliferation. Panels I and II, Bar=1 mm. Panels III-VI represent enlargements of part of panels I and II, bar=0.2 mm.
HUVEC cells were grown on fibrin gel beads as previously described (Nakatsu et al., 2003). Cytodex 3 beads (Amersham Pharmacia Biotech) were coated with 350-400 HUVECs per bead in 2 ml EGM-2 medium (Clonetics). About 200 HUVEC coated beads were imbedded in fibrin clot in one well of 12-well tissue culture plate. […] Medium was changed every two days. After seven to nine days, fibrin gels were then fixed with 4% paraformaldehyde and endothelial cells were stained with anti-CD31 (R&D Systems AF806) using a FITC-conjugated secondary antibody for detection.

SMILES | effect on Notch2 reporter signaling (Notch2 signaling) | effect on Notch1 reporter signaling (Notch1 signaling) | cell viability (SK23 melanoma cells) | cell viability (LOX-IMVI melanoma cells) | Notch signaling (Hes1 staining), large intestine ([1]; day 7) | goblet cell numbers (Alcian Blue and H&E), large intestine ([1]; day 7) | progenitor cell proliferation (Ki-67), large intestine ([1]; day 7) | Hes1 expression, small intestine ([1]; day 7, DBZ 30 μmol/kg) | Paneth cells (lysozyme staining), small intestine ([1]; day 7, DBZ 30 μmol/kg) | goblet cell population (Alcian Blue), small intestine ([1]; day 7, DBZ 30 μmol/kg) | progenitor cell proliferation (Ki-67), small intestine ([1]; day 7, DBZ 30 μmol/kg) | intestinal cell fate changes at early time point ([1]; small intestine, day 2) | endothelial cell sprouts (number and length) (HUVECs)
C[C@H](NC(=O)Cc1cc(F)cc(F)c1)C(=O)N[C@H](C(=O)OC(C)(C)C)c1ccccc1 [DAPT, reference compound] | reduced to background | reduced to background | decrease in viability | decrease in viability | – | – | – | – | – | – | – | – | –
C[C@H](NC(=O)Cc1cc(F)cc(F)c1)C(=O)N[C@@H]1C(=O)N(C)c2ccccc2-c2ccccc21 [DBZ] | – | – | – | – | significantly reduced Notch signaling | increased goblet cell numbers | blocked progenitor cell proliferation | inhibition of Hes1 expression | increased the numbers and/or activity of Paneth cells | dramatic expansion | decrease in progenitor cell proliferation | only weakly detectable | increased both the number and length
